Laboratory results published in US11013784B2 (priority 2015, dated 2021).

Tested on: SKOV3-Luc ovarian tumor cells
Format: cell-based, human

N.N.[Cl][Pt][Cl] [cisplatin]
IC50: 230 µM
